This note sets out measurements from patent US7491794B2, “Macrocyclic compounds as inhibitors of viral replication” (Intermune, Inc., priority 2003, dated 2009).

The structures appear in SMILES notation. Where only a bound is given, the exact number is not on record here.

Assay [1] has as its system HCV sub-genomic replicon, GS4.3. The assay is described as follows: Quantitation by ELISA of NPTII in the HCV sub-genomic replicon, GS4.3, Section C. Particulars: Hepatitis C virus; GS4.3 cells, 72 h incubation; read-out: EC50. It is filed as cell-based. The text has this: Quantitation by ELISA of the selectable marker protein, Neomycin phosphotransferase II (NPTII) in the HCV Sub-Genomic Replicon, GS4.3
The HCV sub-genomic replicon (1377/NS3-3′, accession No. AJ242652), stably maintained in HuH-7 hepatoma cells, was created by Lohmann et al. Science 285: 110-113 (1999). The replicon-containing cell culture, designated GS4.3, was obtained from Dr. Christoph Seeger of the Institute for Cancer Research, Fox Chase Cancer Center, Philadelphia, Pa.
GS4.3 cells were maintained at 37° C., 5% CO2, in DMEM (Gibco 11965-092) supplemented with L-glutamine 200 mM (100×) (Gibco25030-081), non-essential amino acids (NEAA)(Biowhittaker 13-114E), heat-inactivated (HI) Fetal Bovine Serum(FBS)(Hyclone SH3007.03) and 750 μg/ml geneticin (G418)(Gibco 10131-035). Cells were sub-divided 1:3 or 4 every 2-3 days.
24 h prior to the assay, GS4.3 cells were collected, counted, and plated in 96-well plates (Costar 3585) at 7500 cells/well in 100 μl standard maintenance medium (above) and incubated in the conditions above. To initiate the assay, culture medium was removed, cells were washed once with PBS (Gibco 10010-023) and 90 μl Assay Medium (DMEM, L-glutamine, NEAA, 10% HI FBS, no G418) was added. Inhibitors were made as a 10× stock in Assay Medium, (3-fold dilutions from 10 μM to […] final concentration, final DMSO concentration 1%), 10 μl were added to duplicate wells, plates were rocked to mix, and incubated as above for 72 h.
An NPTII Elisa kit was obtained from AGDIA, Inc. (Compound direct ELISA test system for Neomycin Phosphotransferase II, PSP 73000/4800). Manufacturer's instructions were followed, with some modifications. 10×PEB-1 lysis buffer was made up to include 500 μM PMSF (Sigma P7626, 50 mM stock in isopropanol). After 72 h incubation, cells were washed once with PBS and 150 μl PEB-1 with PMSF was added per well. Plates were agitated vigorously for 15 minutes, room temperature, then frozen at −70° C. Plates were thawed, lysates were mixed thoroughly, and 100 μl were applied to an NPTII Elisa plate. A standard curve was made. Lysate from DMSO-treated control cells was pooled, serially diluted with PEB-1 with PMSF, and applied to duplicate wells of the ELISA plate, in a range of initial lysate amount of 150u1-2.5 ul. In addition, 100 μl buffer alone was applied in duplicate as a blank. Plates were sealed and gently agitated at room temperature for 2 h. Following capture incubation, the plates were washed 5×300 μl with PBS-T (0.5% Tween-20, PBS-T was supplied in the ELISA kit). For detection, a 1× dilution of enzyme conjugate diluent MRS-2 (5×) was made in PBS-T, into which 1:100 dilutions of enzyme conjugates A and B were added, as per instructions. Plates were resealed, and incubated with agitation, covered, room temperature, for 2 h. The washing was then repeated and 100 μl of room temperature TMB substrate was added. After approximately 30 minutes incubation (room temperature, agitation, covered), the reaction was stopped with 50 μl 3M sulfuric acid. Plates were read at 450 nm on a Molecular Devices Versamax plate reader.
Inhibitor effect was expressed as a percentage of DMSO-treated control signal, and inhibition curves were calculated using a 4-parameter equation: y=A+((B−A)/(1+((C/x)^D))), where C is half-maximal activity or EC50.

The next assay deals with T1, NS3-NS4 protease (Hepatitis C virus genotype 1a, UniProt P27958).
T1 construct: Recombinant E. coli or Baculovirus full-length NS3 was diluted to 3.33 μM with assay buffer; made in house; host or cells: E. coli or baculovirus (BV) system
T1 sequence (P27958 1027-1657): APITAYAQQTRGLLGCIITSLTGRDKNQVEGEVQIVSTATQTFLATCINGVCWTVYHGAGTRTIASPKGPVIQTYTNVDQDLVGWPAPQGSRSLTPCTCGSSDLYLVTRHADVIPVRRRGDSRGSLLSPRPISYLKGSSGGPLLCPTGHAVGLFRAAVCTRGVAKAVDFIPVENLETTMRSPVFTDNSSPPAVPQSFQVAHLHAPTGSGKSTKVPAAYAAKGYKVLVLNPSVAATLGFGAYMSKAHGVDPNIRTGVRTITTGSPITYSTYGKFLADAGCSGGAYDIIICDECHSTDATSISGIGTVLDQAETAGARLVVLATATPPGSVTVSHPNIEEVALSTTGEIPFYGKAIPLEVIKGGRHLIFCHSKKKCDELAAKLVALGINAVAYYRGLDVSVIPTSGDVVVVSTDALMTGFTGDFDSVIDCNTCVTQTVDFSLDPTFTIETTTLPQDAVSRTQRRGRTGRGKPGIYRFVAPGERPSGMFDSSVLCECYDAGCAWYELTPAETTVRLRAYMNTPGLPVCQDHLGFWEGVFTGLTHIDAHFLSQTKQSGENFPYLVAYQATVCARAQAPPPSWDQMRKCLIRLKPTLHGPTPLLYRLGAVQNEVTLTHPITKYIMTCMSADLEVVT
The assay is described as follows: NS3-NS4 protease assay / NS3 inhibition assay, Section C. It is filed as biochemical. Conditions: read-out: NS3-NS4 IC50. How it is done:
NS3 complex formation with NS4A-2.
Recombinant E. coli or Baculovirus full-length NS3 was diluted to 3.33 μM with assay buffer and transfered material to an eppendorf tube and place in water bath in 4° C. refrigerator. The appropriate amount of NS4A-2 to 8.3 mM in assay buffer was added to equal the volume of NS3 in step 2.1.1 (conversion factor −3.8 mg/272 μL assay buffer). The material was transferred to an eppendorf tube and place in water bath in 4° C. refrigerator.
After equilibration to 4° C., equal volumes of NS3 and NS4A-2 solutions were combined in an eppendorf tube, mix gently with a manual pipettor, and incubate mixture for 15 minutes in the 4° C. water bath. Final concentrations in the mixture are […] NS3, 4.15 mM NS4A-2 (2485-fold molar excess NS4A-2).
After 15 minutes at 4° C., the NS3/NS4A-2 eppendorf tube was removed and place it in a room temperature water bath for 10 minutes. NS3/NS4A-2 was alliquoted at appropriate volumes and store at −80° C. (E. coli NS3 run at 2 nM in assay, aliquot at 25 μL. BV NS3 run at 3 nM in assay, aliquot at 30 μL).
Step 2.2.5. Sample compounds were dissolved to 10 mM in DMSO then diluted to 2.5 mM (1:4) in DMSO.
Step 2.2.6. The E. coli. NS3/NS4A-2 was diluted to 4 nM NS3 (1:417.5 of […] stock−18 μL 1.67 μM stock+7497 μL assay buffer). The BV NS3/NS4A-2 was diluted to 6 nM NS3 (1:278.3 of 1.67 μM stock−24 μL 1.67 μM stock+6655 μL assay buffer).
Step 2.2.7. Using the manual multichannel pipettor, and being careful not to introduce bubbles into the plate, 50 μL assay buffer were added to wells A01-H01 of a black Costar 96-well polypropylene storage plate.
Step 2.2.8. Using the manual multichannel pipettor, and being careful not to introduce bubbles into the plate, 50 μL of diluted NS3/NS4A-2 from step 2.2.6 were added to wells A02-H12 of plate in step 2.2.7.
Step 2.2.9. Using the manual multichannel pipettor, and being careful not to introduce bubbles into the plate, 25 μL of the wells in drug dilution plate in step 2.2.5 were transferred to corresponding wells in assay plate in step 2.2.8. The tips on multichannel pipettor were changed for each row of compounds transferred.
Step 2.2.10. Using the manual multichannel pipettor, and being careful not to introduce bubbles into the plate, the contents of the wells from the assay plate in step 2.2.9 were mixed by aspirating and dispensing 35 μL of the 75 μL in each well five times. The tips on the multichannel pipettor were changed for each row of wells mixed.
Step 2.2.11. The plate was covered with a polystyrene plate lid, and the plate from step 2.2.10 containing NS3 protease and sample compounds was pre-incubated 10 minutes at room temperature.
While the plate from step 2.2.11 was pre-incubating, the RETS1 substrate was diluted in a 15 mL polypropylene centrifuge tube. The RETS1 substrate was diluted to 8 μM (1:80.75 of 646 μM stock−65 μL 646 μM stock+5184 μL assay buffer).
After the plate in step 2.2.11 was done pre-incubating, and using the manual multichannel, 25 μL of substrate were added to all wells on the plate. The contents of the wells of plate were quickly mixed, as in step 2.2.10, but mixing 65 μL of the 100 μL in the wells.
The plate was read in kinetic mode on the Molecular Devices SpectraMax Gemini XS plate reader. Reader settings: Read time: 30 minutes, Interval: 36 seconds, Reads: 51, Excitation λ: 335 nm, Emission λ: 495 nm, cutoff: 475 nm, Automix: off, Calibrate: once, PMT: high, Reads/well: 6, Vmax pts: 21 or 28/51 depending on length of linearity of reaction.
IC50s were determined using a four parameter curve fit equation, and converted to Ki's using the following Km's:
where Ki=IC50/(1+[S]/Km))

`CC(C)(C)OC(=O)N[C@H]1CCCCC/C=C\[C@@H]2C[C@@]2(C(=O)NS(=O)(=O)N2CCCC2)NC(=O)[C@@H]2C[C@@H](OC(=O)N3Cc4ccccc4C3)CN2C1=O` [Compound 103, (1S,4R,6S,14S,18R)-1,3-Dihydro-isoindole-2-carboxylic acid 14-tert-butoxycarbonylamino-4-(pyrrolidinosulfonyl-aminocarbonyl)-2,15-dioxo-3,16-diaza-tricyclo[14.3.0.0^4,6]nonadec-7-en-18-yl ester]: the EC50 – broadly, the midpoint of the concentration-response curve – in assay [1] was under 100 nM. At NS3-NS4 protease, the IC50 (commonly the point on the concentration scale where inhibition reaches its midpoint) was under 100 nM.

In the case of `CC(C)(C)OC(=O)N[C@H]1CCCCC/C=C\[C@@H]2C[C@@]2(C(=O)NS(=O)(=O)N2CCOCC2)NC(=O)[C@@H]2C[C@@H](OC(=O)N3Cc4ccccc4C3)CN2C1=O` [Compound 104, (1S,4R,6S,14S,18R)-1,3-Dihydro-isoindole-2-carboxylic acid 14-tert-butoxycarbonylamino-4-(morpholinosulfonyl-aminocarbonyl)-2,15-dioxo-3,16-diaza-tricyclo[14.3.0.0^4,6]nonadec-7-en-18-yl ester], in assay [1], the EC50 was under 100 nM. Moreover, the half-maximal inhibitory concentration (IC50) on NS3-NS4 protease was under 100 nM.

As for `CN(C)S(=O)(=O)NC(=O)[C@@]12C[C@H]1/C=C\CCCCC[C@H](NC(=O)OC(C)(C)C)C(=O)N1C[C@H](OC(=O)N3CCc4ccccc4C3CN3CCCCC3)C[C@H]1C(=O)N2` (stereo partly drawn) [Compound 107, (1S,4R,6S,14S,18R)-1-Piperidin-1-ylmethyl-3,4-dihydro-1H-isoquinoline-2-carboxylic acid 14-tert-butoxycarbonylamino-2,15-dioxo-4-(N,N-dimethyl-sulfonylaminocarbonyl)-3,16-diaza-tricyclo[14.3.0.0^4,6]nonadec-7-en-18-yl ester], the EC50 in assay [1] was under 100 nM. The IC50 on NS3-NS4 protease is under 100 nM.

In the case of `CC(C)(C)OC(=O)N[C@H]1CCCCC/C=C\[C@@H]2C[C@@]2(C(=O)NS(=O)(=O)NC2CC2)NC(=O)[C@@H]2C[C@@H](OC(=O)N3CCc4ccccc4C3CN3CCCCC3)CN2C1=O` (stereo partly drawn) [Compound 108], in assay [1], the EC50 was under 100 nM. Also, on NS3-NS4 protease, the half-inhibitory concentration (IC50) is under 1000 nM.

Regarding `CC(C)(C)OC(=O)N[C@H]1CCCCC/C=C\[C@@H]2C[C@@]2(C(=O)NS(=O)(=O)N2CCCC2)NC(=O)[C@@H]2C[C@@H](OC(=O)N3CCc4ccccc4C3CN3CCCCC3)CN2C1=O` (stereo partly drawn) [Compound 109, (1S,4R,6S,14S,18R)-1-Piperidin-1-ylmethyl-3,4-dihydro-1H-isoquinoline-2-carboxylic acid 14-tert-butoxycarbonylamino-2,15-dioxo-4-(pyrrolidino-sulfonylaminocarbonyl)-3,16-diaza-tricyclo[14.3.0.0^4,6]nonadec-7-en-18-yl ester], the 50% effective concentration (EC50) in assay [1] was under 1000 nM. The concentration for half-maximal inhibition (IC50) on NS3-NS4 protease is under 100 nM.

On to `CN(C)S(=O)(=O)NC(=O)[C@@]12C[C@H]1/C=C\CCCCC[C@H](NC(=O)OC(C)(C)C)C(=O)N1C[C@H](OC(=O)N3Cc4ccc(Cl)cc4C3)C[C@H]1C(=O)N2` [Compound 113, (1S,4R,6S,14S,18R)-5-Chloro-1,3-Dihydro-isoindole-2-carboxylic acid 14-tert-butoxycarbonylamino-4-(N,N-dimethylsulfonyl-aminocarbonyl)-2,15-dioxo-3,16-diaza-tricyclo[14.3.0.0^4,6]nonadec-7-en-18-yl ester], for which, in assay [1], the EC50 is under 100 nM. Further, the IC50 on NS3-NS4 protease was under 100 nM.

With `CC(C)(C)OC(=O)N[C@H]1CCCCC/C=C\[C@@H]2C[C@@]2(C(=O)NS(=O)(=O)NC2CC2)NC(=O)[C@@H]2C[C@@H](OC(=O)N3Cc4ccc(Cl)cc4C3)CN2C1=O` [Compound 114], the EC50 in assay [1] was under 100 nM. On NS3-NS4 protease, the IC50 was under 100 nM.

On to `CC(C)(C)OC(=O)N[C@H]1CCCCC/C=C\[C@@H]2C[C@@]2(C(=O)NS(=O)(=O)N2CCCC2)NC(=O)[C@@H]2C[C@@H](OC(=O)N3Cc4ccc(Cl)cc4C3)CN2C1=O` [Compound 115, (1S,4R,6S,14S,18R)-5-Chloro-1,3-Dihydro-isoindole-2-carboxylic acid 14-tert-butoxycarbonylamino-4-(pyrrolidino-sulfonyl-aminocarbonyl)-2,15-dioxo-3,16-diaza-tricyclo[14.3.0.0^4,6]nonadec-7-en-18-yl ester], for which, in assay [1], the EC50 was under 100 nM. The IC50 at NS3-NS4 protease was under 100 nM.

For the molecule `CC(C)(C)OC(=O)N[C@H]1CCCCC/C=C\[C@@H]2C[C@@]2(C(=O)NS(=O)(=O)N2CCOCC2)NC(=O)[C@@H]2C[C@@H](OC(=O)N3Cc4ccc(Cl)cc4C3)CN2C1=O` [Compound 116, (1S,4R,6S,14S,18R)-5-Chloro-1,3-Dihydro-isoindole-2-carboxylic acid 14-tert-butoxycarbonylamino-4-(morpholino-sulfonyl-aminocarbonyl)-2,15-dioxo-3,16-diaza-tricyclo[14.3.0.0^4,6]nonadec-7-en-18-yl ester], in assay [1], the 50% effective concentration (EC50) is under 1000 nM. Also, the 50% inhibitory concentration (IC50) at NS3-NS4 protease was under 100 nM.
